Laboratory results from ChEMBL document CHEMBL1201862, “PubChem BioAssay data set” (2004).
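Following 48 hours of exposure in 96-well plates, responses at five concentrations were used to interpolate endpoints linearly. Abbreviation: GI50, concentration required for 50% inhibition of growth.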 Activity calls are given as the source filed them. Cut-off read from the data, not from the text of the source: active = GI50 up to about 1.1 µM and inactive = higher.

Assays:
Assay in all cases: inhibition of tumour cell growth, NCI panel, 48 h
ACHN = test system: ACHN
HOP-62 = test system: HOP-62
OVCAR-3 = test system: OVCAR-3
NCI-H23 = test system: NCI-H23
IGROV-1 = test system: IGROV-1
TK-10 = test system: TK-10
A498 = test system: A498
OVCAR-4 = test system: OVCAR-4
786-0 = test system: 786-0
UACC-257 = test system: UACC-257
UO-31 = test system: UO-31
PC-3 = test system: PC-3
HL-60 = test system: HL-60
SK-MEL-28 = test system: SK-MEL-28
HCC 2998 = test system: HCC 2998
SN12C = test system: SN12C
MDA-MB-435 = test system: MDA-MB-435
NCI-H226 = test system: NCI-H226
MDA-MB-231 = test system: MDA-MB-231
MCF7 = test system: MCF7

Measured: GI50

O=C1CC(C(OCc2ccccc2)C(OCc2ccccc2)C(OCc2ccccc2)C(COCc2ccccc2)OCc2ccccc2)CC(=O)N1 (stereo unspecified)
inactive: ACHN > 100 µM | HOP-62 > 100 µM | OVCAR-3 > 100 µM | NCI-H23 > 100 µM | IGROV-1 > 100 µM | TK-10 > 100 µM | A498 > 100 µM | OVCAR-4 > 100 µM | 786-0 > 100 µM | UACC-257 > 100 µM | UO-31 60.1 µM | PC-3 > 100 µM | HL-60 > 100 µM | SK-MEL-28 > 100 µM | HCC 2998 > 100 µM | SN12C > 100 µM | MDA-MB-435 > 100 µM

COc1ccc(/C=C2/S/C(=N\c3ccccc3)N(NC(=O)Cc3ccccc3)C2=O)c(OC)c1
inactive: NCI-H226 > 100 µM | ACHN > 100 µM | MDA-MB-231 69 µM | HOP-62 > 100 µM | OVCAR-3 > 100 µM | NCI-H23 > 100 µM | IGROV-1 > 100 µM | TK-10 > 100 µM | MCF7 > 100 µM | A498 > 100 µM | OVCAR-4 > 100 µM | 786-0 > 100 µM | UACC-257 > 100 µM | UO-31 98.9 µM | SK-MEL-28 > 100 µM | HCC 2998 82.6 µM | SN12C > 100 µM | MDA-MB-435 > 100 µM

Nc1cc(N2CCOCC2)nc(=O)n1-c1ccc(Cl)cc1
inactive: NCI-H226 > 100 µM | ACHN > 100 µM | HOP-62 > 100 µM | OVCAR-3 > 100 µM | NCI-H23 > 100 µM | IGROV-1 > 100 µM | MCF7 > 100 µM | A498 > 100 µM | 786-0 > 100 µM | UACC-257 > 100 µM | UO-31 > 100 µM | PC-3 > 100 µM | HL-60 8.38 µM | SK-MEL-28 > 100 µM | HCC 2998 > 100 µM | SN12C > 100 µM | MDA-MB-435 > 100 µM

Cc1cc2c(c(C#N)c1C)NC(=O)C(CC(=O)O)C2=O (stereo unspecified)
inactive: NCI-H226 > 100 µM | ACHN > 100 µM | HOP-62 > 100 µM | OVCAR-3 > 100 µM | NCI-H23 > 100 µM | IGROV-1 > 100 µM | TK-10 > 100 µM | A498 > 100 µM | OVCAR-4 > 100 µM | 786-0 > 100 µM | UACC-257 > 100 µM | UO-31 > 100 µM | HL-60 > 100 µM | SK-MEL-28 > 100 µM | HCC 2998 > 100 µM | SN12C > 100 µM

O=C(Cn1cc(I)c(C(=O)NCC(O)CO)n1)NCC(O)CO (stereo unspecified)
inactive: NCI-H226 > 100 µM | ACHN > 100 µM | HOP-62 > 100 µM | OVCAR-3 > 100 µM | NCI-H23 > 100 µM | IGROV-1 > 100 µM | TK-10 > 100 µM | A498 > 100 µM | OVCAR-4 > 100 µM | 786-0 > 100 µM | UACC-257 > 100 µM | UO-31 > 100 µM | HL-60 > 100 µM | SK-MEL-28 > 100 µM | HCC 2998 > 100 µM | SN12C > 100 µM

CCc1cccc(C)c1N1C(=O)C(=O)C(c2nc3ccccc3o2)C(=O)C1=O
inactive: NCI-H226 > 100 µM | ACHN > 100 µM | HOP-62 > 100 µM | OVCAR-3 > 100 µM | NCI-H23 > 100 µM | IGROV-1 > 100 µM | TK-10 > 100 µM | A498 > 100 µM | OVCAR-4 > 100 µM | 786-0 > 100 µM | UACC-257 > 100 µM | UO-31 > 100 µM | HL-60 > 100 µM | SK-MEL-28 > 100 µM | HCC 2998 > 100 µM | SN12C > 100 µM

Cc1ccc(NC(=O)CC2SC(Nc3ccc(Cl)cc3)=NC2=O)cc1C (stereo unspecified)
inactive: NCI-H226 > 47.2 µM | ACHN 16.1 µM | HOP-62 > 100 µM | OVCAR-3 18.9 µM | NCI-H23 19 µM | IGROV-1 > 46.3 µM | TK-10 17.3 µM | A498 23 µM | OVCAR-4 20.2 µM | 786-0 17.8 µM | UACC-257 15.9 µM | UO-31 18.6 µM | HL-60 3.12 µM | SK-MEL-28 19.5 µM | HCC 2998 18.6 µM | SN12C 17.9 µM

O=C(O)C(C(=O)C(=O)C(C(=O)O)c1ccc(Cl)cc1)c1ccc(Cl)cc1 (stereo unspecified)
inactive: NCI-H226 4.58 µM | ACHN 3.64 µM | HOP-62 5.22 µM | OVCAR-3 2.9 µM | NCI-H23 2 µM | IGROV-1 3.23 µM | TK-10 4.57 µM | A498 4.76 µM | OVCAR-4 1.89 µM | 786-0 4.2 µM | UACC-257 2.75 µM | UO-31 4.72 µM | HL-60 2.18 µM | SK-MEL-28 4.54 µM | HCC 2998 4.02 µM | SN12C 2.94 µM

O=C(/C=C\c1cccc2ccccc12)c1ccc(F)cc1
inactive: NCI-H226 35.9 µM | ACHN 17 µM | HOP-62 69.8 µM | OVCAR-3 17.1 µM | NCI-H23 20 µM | IGROV-1 15.3 µM | TK-10 15.3 µM | A498 29.7 µM | OVCAR-4 20.1 µM | 786-0 18.1 µM | UACC-257 17.6 µM | UO-31 16.7 µM | HL-60 20.6 µM | SK-MEL-28 13.2 µM | HCC 2998 19.5 µM | SN12C 17.3 µM

CCCCCCCCCCCCCC(=O)CC(=O)c1c(O)cccc1O
inactive: NCI-H226 28.4 µM | ACHN 28.2 µM | HOP-62 34.4 µM | OVCAR-3 18.9 µM | NCI-H23 23 µM | IGROV-1 48 µM | TK-10 51.6 µM | A498 > 100 µM | OVCAR-4 33.4 µM | 786-0 34.9 µM | UACC-257 32.4 µM | UO-31 32.7 µM | HL-60 20.8 µM | SK-MEL-28 > 100 µM | HCC 2998 38.2 µM | SN12C 33.6 µM

CC1(C)CS(=O)(=O)CC(C)(C)C(=N/N)/C1=N\N
inactive: ACHN > 100 µM | HOP-62 > 100 µM | OVCAR-3 > 100 µM | NCI-H23 > 100 µM | IGROV-1 > 100 µM | TK-10 > 100 µM | MCF7 > 100 µM | A498 > 100 µM | OVCAR-4 > 100 µM | 786-0 > 100 µM | UACC-257 > 100 µM | PC-3 > 100 µM | HL-60 > 100 µM | SK-MEL-28 > 100 µM | HCC 2998 > 100 µM | SN12C > 100 µM | MDA-MB-435 > 100 µM

CC(C)CC(Nc1c(O)ccc2ccccc12)C(=O)O (stereo unspecified)
inactive: NCI-H226 20 µM | ACHN 22.9 µM | MDA-MB-231 25.4 µM | HOP-62 83.9 µM | OVCAR-3 20.7 µM | NCI-H23 19.5 µM | IGROV-1 32.7 µM | TK-10 39.9 µM | MCF7 41.2 µM | A498 23.3 µM | OVCAR-4 51.4 µM | 786-0 59.3 µM | UACC-257 20.5 µM | UO-31 27.6 µM | HL-60 34.2 µM | SK-MEL-28 45.9 µM | HCC 2998 25.2 µM | SN12C 29.3 µM | MDA-MB-435 17.3 µM

C[Si](C)(C)CN1C(=O)c2ccccc2C1(O)c1ccccc1 (stereo unspecified)
inactive: NCI-H226 > 100 µM | ACHN 56.1 µM | HOP-62 > 100 µM | OVCAR-3 > 86.3 µM | NCI-H23 50.6 µM | IGROV-1 99.5 µM | TK-10 > 100 µM | A498 > 100 µM | OVCAR-4 70.6 µM | 786-0 > 100 µM | UACC-257 57.3 µM | UO-31 30.5 µM | HL-60 40.7 µM | SK-MEL-28 > 100 µM | HCC 2998 > 100 µM | SN12C > 89.3 µM

CCCN/C(N)=N/C#N
inactive: NCI-H226 > 100 µM | ACHN > 100 µM | HOP-62 > 100 µM | OVCAR-3 > 100 µM | NCI-H23 > 100 µM | IGROV-1 > 100 µM | TK-10 > 100 µM | A498 67.6 µM | OVCAR-4 37.1 µM | 786-0 25.3 µM | UACC-257 > 100 µM | UO-31 > 100 µM | HL-60 > 100 µM | SK-MEL-28 > 100 µM | HCC 2998 > 100 µM | SN12C > 100 µM

Cc1ccc(-c2nc3n(c2/C=N\N=C(N)N)CCS3)cc1
inactive: ACHN 15 µM | MDA-MB-231 16.3 µM | HOP-62 15 µM | NCI-H23 15.8 µM | IGROV-1 15 µM | TK-10 19 µM | A498 16.8 µM | OVCAR-4 16.6 µM | 786-0 15.8 µM | UACC-257 16.6 µM | UO-31 16.7 µM | PC-3 15 µM | HL-60 33.3 µM | SK-MEL-28 15.7 µM | HCC 2998 11.6 µM | SN12C 16.1 µM | MDA-MB-435 15.5 µM

CC(=O)c1ccc(NC(=O)COC(=O)c2cccc3c(=O)c4ccccc4[nH]c23)cc1
inactive: NCI-H226 19.4 µM | ACHN 27.8 µM | HOP-62 31.5 µM | OVCAR-3 27.2 µM | NCI-H23 18.6 µM | IGROV-1 37.4 µM | TK-10 21.7 µM | A498 44 µM | OVCAR-4 6.79 µM | 786-0 37.8 µM | UACC-257 57.7 µM | UO-31 96.2 µM | HL-60 > 100 µM | SK-MEL-28 40.6 µM | HCC 2998 > 100 µM | SN12C 16.1 µM

COc1cccc(C=O)c1C(=O)c1cc(O)ccc1O
inactive: NCI-H226 > 100 µM | ACHN 17.6 µM | HOP-62 > 100 µM | OVCAR-3 20.2 µM | NCI-H23 > 81.7 µM | IGROV-1 > 44.2 µM | TK-10 29.6 µM | A498 > 44.9 µM | OVCAR-4 18.3 µM | 786-0 > 100 µM | UACC-257 20.1 µM | UO-31 18.5 µM | HL-60 9.62 µM | SK-MEL-28 34.1 µM | HCC 2998 > 100 µM | SN12C > 84.1 µM
